Assay results published in publication PMC8286840, “Identifying SARS-CoV-2 antiviral compounds by screening for small molecule inhibitors of Nsp3 papain-like protease” (Biochemical Journal, 2021).
Where a name gives a salt, the structure may show the parent alone. Read-outs that look alike come from different tables or passages of the source.

What was measured:
[1] = target: T1, SARS-CoV-2 PLpro (nsp3 1564–1878) (Severe acute respiratory syndrome coronavirus 2, UniProt P0DTD1); test: biochemical; set-up: FRET-quenched peptide (Pro3) cleavage by PLpro, 10 min pre-incubation, slope over 20 min, normalised to no-compound control; conditions: low concentration screen, read-out: % of control remaining
[2] = target: T1, SARS-CoV-2 PLpro (nsp3 1564–1878); test: biochemical; set-up: FRET-quenched peptide (Pro3) cleavage by PLpro, 10 min pre-incubation, slope over 20 min, normalised to no-compound control; conditions: high concentration screen, read-out: % of control remaining

Q: For `C[N+](C)(C)CC(=O)O` [Betaine hydrochloride], which remaining activity at 1.25 µM ([1]; Well no.=77) is on record?
A: 101%

Q: And the remaining activity at 3.75 µM ([2]; Well no.=77)?
A: 103%

Q: Which remaining activity at 1.25 µM ([1]; Well no.=18) does the source give for `CC(=O)c1ccc(S(=O)(=O)NC(=O)NC2CCCCC2)cc1` [Acetohexamide] here?
A: 93.4%

Q: And the remaining activity at 3.75 µM ([2]; Well no.=18)?
A: 98.9%

Q: For `O=C(Nc1nc2ccc(NC(=O)C34C[C@H]5C[C@@H](C3)C[C@@H](C4)C5)cc2s1)c1ccccc1` [NVP-231], which remaining activity at 1.25 µM ([1]; Well no.=5410) is on record?
A: 95.2%

Q: And the remaining activity at 3.75 µM ([2]; Well no.=5410)?
A: 86.5%

Q: With `CCOc1cc(N2CCC(O)CC2)ccc1Nc1ncc2c(n1)N(C)c1ccccc1C(=O)N2C` [XMD8-92] as the molecule, how does the remaining activity at 1.25 µM ([1]; Well no.=5565) read?
A: 93.8%

Q: And the remaining activity at 3.75 µM ([2]; Well no.=5565)?
A: 95.2%

Q: `NCC(O)(CS(=O)(=O)O)c1ccc(Cl)cc1` (stereo not shown) [2-Hydroxysaclofen] was tested. Which remaining activity at 1.25 µM ([1]; Well no.=355) did it give?
A: 97.9%

Q: And the remaining activity at 3.75 µM ([2]; Well no.=355)?
A: 95.6%

Q: Which results are given for `C[C@H](CCC(=O)O)[C@H]1CC[C@H]2[C@@H]3[C@H](O)C[C@@H]4C[C@H](O)CC[C@]4(C)[C@H]3CC[C@]12C` [Chenodeoxycholic Acid]?
A: remaining activity at 1.25 µM ([1]; Well no.=6483): 99.2%; remaining activity at 1.25 µM ([1]; Well no.=8382): 96.1%; remaining activity at 3.75 µM ([2]; Well no.=6483): 101%; remaining activity at 3.75 µM ([2]; Well no.=8382): 88.2%

Q: With `Nc1ccc(S(=O)(=O)Nc2ccnn2-c2ccccc2)cc1` [Sulfaphenazole] as the molecule, how does the remaining activity at 1.25 µM ([1]; Well no.=1404) read?
A: 104%

Q: And the remaining activity at 1.25 µM ([1]; Well no.=8418)?
A: 85.5%

Q: And the remaining activity at 3.75 µM ([2]; Well no.=1404)?
A: 99.3%

Q: And the remaining activity at 3.75 µM ([2]; Well no.=8418)?
A: 85.2%

Q: What does the source list for `CN1C(=O)CCS(=O)(=O)C1c1ccc(Cl)cc1` (stereo not shown) [Chlormezanone]?
A: remaining activity at 1.25 µM ([1]; Well no.=679): 99%; remaining activity at 3.75 µM ([2]; Well no.=679): 96.9%

Q: Which remaining activity at 1.25 µM ([1]; Well no.=2488) does the source give for `Cn1cc(/C=C2\C(=O)Nc3cccnc32)c2ccccc21` [GW 441756 - 1,3-Dihydro-3-[(1-methyl-1H-indol-3-yl)methylene]-2H-pyrrolo[3,2-b]pyridin-2-one] here?
A: 102%

Q: And the remaining activity at 3.75 µM ([2]; Well no.=2488)?
A: 100%

Q: Which results are given for `N[C@@H]1C[C@H]1c1ccccc1` (racemic) [Tranylcypromine]?
A: remaining activity at 1.25 µM ([1]; Well no.=1564): 95.7%; remaining activity at 3.75 µM ([2]; Well no.=1564): 95.7%

Q: For `CCn1c(=O)c2c(C)c(C(=O)N3CCC(O)CC3)sc2n(CCC(F)(F)F)c1=O` [BAY-545], which remaining activity at 1.25 µM ([1]; Well no.=8597) is on record?
A: 106%

Q: What about the remaining activity at 3.75 µM ([2]; Well no.=8597) of the same molecule?
A: 104%

Q: Which remaining activity at 1.25 µM ([1]; Well no.=3231) does the source give for `CC(C)[C@@]1(NC(=O)[C@@H]2C[C@@H]3c4cccc5[nH]cc(c45)C[C@H]3N(C)C2)O[C@@]2(O)[C@@H]3CCCN3C(=O)[C@H](Cc3ccccc3)N2C1=O` [Dihydroergocristine mesylate] here?
A: 108%

Q: What about the remaining activity at 3.75 µM ([2]; Well no.=3231) of the same molecule?
A: 105%

Q: `COc1cc2c(cc1OC)-c1c/c(=N\c3c(C)cc(C)cc3C)n(C)c(=O)n1CC2` [Trequinsin hydrochloride] was tested. Which remaining activity at 1.25 µM ([1]; Well no.=1379) did it give?
A: 98.6%

Q: What about the remaining activity at 3.75 µM ([2]; Well no.=1379) of the same molecule?
A: 97.1%

Q: `C[C@H](CCC(=O)NCCS(=O)(=O)O)[C@H]1CC[C@H]2[C@@H]3[C@@H](O)C[C@@H]4C[C@H](O)CC[C@]4(C)[C@H]3CC[C@]12C` [Tauroursodeoxycholate (Sodium)] was tested. Which remaining activity at 1.25 µM ([1]; Well no.=6310) did it give?
A: 102%

Q: And the remaining activity at 3.75 µM ([2]; Well no.=6310)?
A: 104%

Q: For `COc1cc2nc(N3CCN(C(=O)C4COc5ccccc5O4)CC3)nc(N)c2cc1OC` (stereo not shown) [Doxazosin mesylate], which remaining activity at 1.25 µM ([1]; Well no.=730) is on record?
A: 98.2%

Q: What about the remaining activity at 3.75 µM ([2]; Well no.=730) of the same molecule?
A: 93.7%

Q: With `CCCCCOc1ccccc1C(O)CC#CCCCC(=O)OC` (stereo not shown) [CAY10514] as the molecule, how does the remaining activity at 1.25 µM ([1]; Well no.=4293) read?
A: 100%

Q: What about the remaining activity at 3.75 µM ([2]; Well no.=4293) of the same molecule?
A: 98.7%

Q: For `N=C1S/C(=C\c2ccc(-c3ccc4c(c3)C(=O)NC4=O)o2)C(=O)N1c1ccc(Br)cc1` [Bioymifi], which remaining activity at 1.25 µM ([1]; Well no.=6390) is on record?
A: 96.5%

Q: What about the remaining activity at 3.75 µM ([2]; Well no.=6390) of the same molecule?
A: 98%

Q: Which remaining activity at 1.25 µM ([1]; Well no.=6539) does the source give for `O=C(O)/C=C/C(=O)O` [Fumaric acid] here?
A: 101%

Q: And the remaining activity at 3.75 µM ([2]; Well no.=6539)?
A: 82.4%

Q: Which results are given for `C[C@@](Cc1ccc(O)c(O)c1)(NN)C(=O)O` [S-(-)-Carbidopa]?
A: remaining activity at 1.25 µM ([1]; Well no.=677): 99.2%; remaining activity at 3.75 µM ([2]; Well no.=677): 97.9%

Q: With `CCCCCCCC[C@H]1O[C@H]1CCCCCCCC(=O)O` [Epoxy-oleic acid] as the molecule, how does the remaining activity at 1.25 µM ([1]; Well no.=4569) read?
A: 96.6%

Q: And the remaining activity at 3.75 µM ([2]; Well no.=4569)?
A: 103%

Q: Which results are given for `Nc1ncnc2c1c(-c1cccc(OCc3ccccc3)c1)cn2C1CC(CN2CCCC2)C1` (stereo in doubt) [NVP-ADW742]?
A: remaining activity at 1.25 µM ([1]; Well no.=4629): 95.7%; remaining activity at 3.75 µM ([2]; Well no.=4629): 93.2%

Q: What does the source list for `CCc1nc(N)nc(N)c1-c1ccc(Cl)cc1` [Pyrimethamine]?
A: remaining activity at 1.25 µM ([1]; Well no.=4708): 102%; remaining activity at 3.75 µM ([2]; Well no.=4708): 97.2%

Q: Which results are given for `N[C@H](C(=O)O)c1cc(O)cc(O)c1` [(S)-3,5-Dihydroxyphenylglycine]?
A: remaining activity at 1.25 µM ([1]; Well no.=401): 102%; remaining activity at 3.75 µM ([2]; Well no.=401): 98.7%

Q: What does the source list for `CN1CCN(c2c(F)cc3c(=O)c(C(=O)O)cn(CCF)c3c2F)CC1` [Fleroxacin]?
A: remaining activity at 1.25 µM ([1]; Well no.=2120): 92.9%; remaining activity at 3.75 µM ([2]; Well no.=2120): 96.3%

Q: Which results are given for `NC(=O)c1cc(N2CC2)c([N+](=O)[O-])cc1[N+](=O)[O-]` [CB 1954]?
A: remaining activity at 1.25 µM ([1]; Well no.=189): 94.7%; remaining activity at 3.75 µM ([2]; Well no.=189): 95.5%

Q: How did the remaining activity at 1.25 µM ([1]; Well no.=7996) turn out when `CC(=O)OC[C@H]1O[C@@H](n2ccc(=O)[nH]c2=O)[C@H](OC(C)=O)[C@@H]1OC(C)=O` [Uridine triacetate] was run?
A: 92.7%

Q: And the remaining activity at 3.75 µM ([2]; Well no.=7996)?
A: 94.1%

Q: How did the remaining activity at 1.25 µM ([1]; Well no.=536) turn out when `OC[C@@H](O)[C@H]1NC[C@@H](O)[C@H]1O` [1,4-Dideoxy-1,4-imino-D-mannitol hydrochloride] was run?
A: 101%

Q: What about the remaining activity at 3.75 µM ([2]; Well no.=536) of the same molecule?
A: 99.2%

Q: `CCCOc1ccccc1-c1nc2[nH]nnc2c(=O)[nH]1` [Zaprinast] was tested. Which remaining activity at 1.25 µM ([1]; Well no.=1342) did it give?
A: 99.6%

Q: What about the remaining activity at 1.25 µM ([1]; Well no.=2188) of the same molecule?
A: 92%

Q: What about the remaining activity at 3.75 µM ([2]; Well no.=1342) of the same molecule?
A: 101%

Q: What about the remaining activity at 3.75 µM ([2]; Well no.=2188) of the same molecule?
A: 95.6%

Q: Which remaining activity at 1.25 µM ([1]; Well no.=5502) does the source give for `CCc1c(CC(N)=O)c2cc(OCCCP(=O)(O)O)ccc2n1Cc1ccccc1` [LY311727] here?
A: 102%

Q: What about the remaining activity at 3.75 µM ([2]; Well no.=5502) of the same molecule?
A: 109%

Q: With `N[C@@H](CSCCB(O)O)C(=O)O` [BEC (hydrochloride)] as the molecule, how does the remaining activity at 1.25 µM ([1]; Well no.=8165) read?
A: 105%

Q: And the remaining activity at 3.75 µM ([2]; Well no.=8165)?
A: 103%

Q: With `COc1ccc2c(OC)c3ccoc3nc2c1OC` [Skimmianine] as the molecule, how does the remaining activity at 1.25 µM ([1]; Well no.=3201) read?
A: 112%

Q: What about the remaining activity at 3.75 µM ([2]; Well no.=3201) of the same molecule?
A: 109%

Q: How did the remaining activity at 1.25 µM ([1]; Well no.=2099) turn out when `Nc1nc(O)c2ncn(CCC(CO)CO)c2n1` [Penciclovir] was run?
A: 97.6%

Q: What about the remaining activity at 1.25 µM ([1]; Well no.=8002) of the same molecule?
A: 105%

Q: And the remaining activity at 3.75 µM ([2]; Well no.=2099)?
A: 98.9%

Q: And the remaining activity at 3.75 µM ([2]; Well no.=8002)?
A: 102%

Q: What does the source list for `CCCCC/C=C\C/C=C\CCCCCCCC(=O)O` [Linoleic acid]?
A: remaining activity at 1.25 µM ([1]; Well no.=4349): 103%; remaining activity at 1.25 µM ([1]; Well no.=7029): 94.8%; remaining activity at 3.75 µM ([2]; Well no.=4349): 101%; remaining activity at 3.75 µM ([2]; Well no.=7029): 85.7%
